Assay results reported in patent EP1992347A1 (CELLZOME AG, priority 2007, dated 2008).

Tests used:
FAK = FAK (Homo sapiens, UniProt Q05397); conditions: phage display studies, Fabian et al., 2005; cited from earlier work
[1] = molecular target: T1, receptor tyrosine kinase DDR1 (Homo sapiens, UniProt Q08345); assay: kinobeads competition binding assay in K562 cell lysate (iTRAQ mass spectrometry, Western blot); conditions: at 1 µM
T1 construct: endogenous in cells; host or cells: K562 cells / K562 cell lysate
T1 sequence (Q08345 19-913): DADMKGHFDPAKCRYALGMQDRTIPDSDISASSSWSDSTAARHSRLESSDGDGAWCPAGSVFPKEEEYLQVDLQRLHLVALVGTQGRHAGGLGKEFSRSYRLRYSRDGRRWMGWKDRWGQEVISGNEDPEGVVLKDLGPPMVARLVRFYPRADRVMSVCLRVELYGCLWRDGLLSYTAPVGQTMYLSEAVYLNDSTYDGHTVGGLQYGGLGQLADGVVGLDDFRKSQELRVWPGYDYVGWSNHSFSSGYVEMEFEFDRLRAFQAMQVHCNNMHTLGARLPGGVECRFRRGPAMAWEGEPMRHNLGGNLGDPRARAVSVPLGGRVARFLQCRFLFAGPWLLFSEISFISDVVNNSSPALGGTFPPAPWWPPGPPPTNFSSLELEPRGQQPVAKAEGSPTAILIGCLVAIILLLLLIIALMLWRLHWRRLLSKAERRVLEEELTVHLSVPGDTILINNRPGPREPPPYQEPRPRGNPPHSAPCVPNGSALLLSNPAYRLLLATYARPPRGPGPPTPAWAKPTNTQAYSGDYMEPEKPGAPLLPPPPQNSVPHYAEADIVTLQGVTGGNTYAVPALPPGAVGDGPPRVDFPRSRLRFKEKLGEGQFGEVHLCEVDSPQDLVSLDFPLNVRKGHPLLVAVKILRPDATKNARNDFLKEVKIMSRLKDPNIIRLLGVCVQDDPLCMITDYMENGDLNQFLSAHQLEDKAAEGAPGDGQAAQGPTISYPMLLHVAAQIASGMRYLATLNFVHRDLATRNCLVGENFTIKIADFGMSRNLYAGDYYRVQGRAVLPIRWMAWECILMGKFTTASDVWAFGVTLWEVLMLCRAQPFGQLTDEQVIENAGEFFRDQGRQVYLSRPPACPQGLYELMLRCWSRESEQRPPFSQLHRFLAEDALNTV
Procedure: From this dataset, dose-response binding profiles were computed.
All experiments were performed in duplicate.

FAK, sequence (Q05397 whole entry, species assumed): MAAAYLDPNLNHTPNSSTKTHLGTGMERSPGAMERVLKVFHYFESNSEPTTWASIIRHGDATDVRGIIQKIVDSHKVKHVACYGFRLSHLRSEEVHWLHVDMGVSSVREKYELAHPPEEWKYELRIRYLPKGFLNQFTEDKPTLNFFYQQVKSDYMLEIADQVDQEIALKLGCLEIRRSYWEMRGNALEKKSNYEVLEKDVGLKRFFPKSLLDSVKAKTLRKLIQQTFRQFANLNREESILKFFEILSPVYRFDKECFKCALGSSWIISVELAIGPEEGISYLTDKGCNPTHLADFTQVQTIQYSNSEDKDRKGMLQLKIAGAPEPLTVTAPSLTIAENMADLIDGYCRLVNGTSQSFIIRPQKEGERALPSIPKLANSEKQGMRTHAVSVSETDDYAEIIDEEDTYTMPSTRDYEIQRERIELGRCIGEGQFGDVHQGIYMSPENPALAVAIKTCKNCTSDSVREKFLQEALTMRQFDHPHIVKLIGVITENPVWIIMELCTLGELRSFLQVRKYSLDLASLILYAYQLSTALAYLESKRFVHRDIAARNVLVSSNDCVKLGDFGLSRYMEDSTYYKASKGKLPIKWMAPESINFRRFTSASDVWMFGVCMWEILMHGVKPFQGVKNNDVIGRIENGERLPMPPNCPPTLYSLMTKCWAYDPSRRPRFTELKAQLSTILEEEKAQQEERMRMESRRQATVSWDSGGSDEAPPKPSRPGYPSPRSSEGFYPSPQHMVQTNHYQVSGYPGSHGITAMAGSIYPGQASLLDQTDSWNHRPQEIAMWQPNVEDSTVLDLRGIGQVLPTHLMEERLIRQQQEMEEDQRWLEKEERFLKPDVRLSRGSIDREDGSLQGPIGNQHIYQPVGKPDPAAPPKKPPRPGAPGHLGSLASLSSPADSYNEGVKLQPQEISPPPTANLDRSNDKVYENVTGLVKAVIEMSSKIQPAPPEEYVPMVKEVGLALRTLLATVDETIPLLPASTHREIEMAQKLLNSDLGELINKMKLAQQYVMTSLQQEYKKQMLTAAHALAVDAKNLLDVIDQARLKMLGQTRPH

Structure (SMILES)	binding to FAK (FAK)	competition [1] [%]
Cc1ccc(NC(=O)c2ccc(CN3CCN(C)CC3)cc2)cc1Nc1nccc(-c2cccnc2)n1 [imatinib, 4-(4-methylpiperazin-1-ylmethyl)-N-[4-methyl-3-(4-pyridin-3-yl)pyrimidin-2-ylamino)phenylbenzamide]	no binding	
COc1cc(Nc2c(C#N)cnc3cc(OCCCN4CCN(C)CC4)c(OC)cc23)c(Cl)cc1Cl [bosutinib]		> 50
